Reference: ChEMBL document CHEMBL5729557, “5-membered heteroaryl carboxamide compounds for treatment of HBV” (2023)

assay: Assay Measuring Activity of Test Compounds on Viral Production from HepAD38 Cells: HepAD38 cells grown in a T-150 flask (Corning, cat #: 430825) with Growth Medium (DMEM/F12 (1:1) (Hyclone, cat #: SH30023.02), 1× Pen/Strep (Invitrogen, cat #: 15140-122), 10% FBS (Tissue Culture Biologics, cat #: 101), 250 μg/mL G418 (Alfa Aesar, cat #: J62671), 1 μg/mL Tetracycline (Teknova, cat #: T3320)) were detached with 0.25% trypsin-EDTA to (Invitrogen, cat #: 25200-056). Tetracycline-free treatment medium (15 mL DMEM/F12 (1:1) 1× Pen/step, with 2% FBS, Tet-system approved (Clontech, cat #: 631106) were then added to mix, transferred into a 50 ml conical tube (Falcon, cat #: 21008-918,) and spun at 1300 rpm for 5 min. Pelleted cells were then re-suspended/washed with 50 mL of 1×DPBS (Invitrogen, cat #: 14190-136) 2 times and 50 mL treatment medium twice. HepAD38 cells were then re-suspended with 10 mL of treatment medium, syringed and counted. Wells of 96-well clear bottom TC plate (Corning, cat #: 3904,) were seeded at 50,000 cells/well in 180 μL of treatment medium, and 20 μL of either 10% DMSO (Sigma, cat #: D4540) as controls or a 10× solution of test compounds in 10% DMSO in treatment media was added for a final compound concentration starting at 10 μM, and plates were incubated in 5% CO2 incubator at 37° C. for 5 days.Subsequently viral load production was assayed by quantitative PCR (qPCR) of the HBV core sequence. PCR reaction mixture containing forward primers HBV-f 5′-CTGTGCCTTGGGTGGCTTT-3′ (IDT DNA), Reverse primers HBV-r 5′-[…]-3′ (IDT DNA), Fluorescent TaqMan™ Probes HBV-probe 5′-FAM/AGCTCCAAA/ZEN/[…]/3IABkFQ-3′ (IDT DNA), 10 μL/well of PerfeCTa® qPCR ToughMix® (Quanta Biosciences, Cat #: 95114-05K), and 6 μL/well of DEPC water (Alfa Aesar, cat #: J62087) was prepared. […] of supernatant was added to 16 μL of the reaction mixture in a qPCR plate (Applied Biosytems, Cat #: 4309849), sealed with a film (Applied Biosystems, Cat #: 4311971), centrifuged for a few seconds, and subsequently run on an Applied Biosystems VIIA7. The PCR mixture was incubated at 45° C. for 5 min, then 95° C. for 10 min, followed by 40 cycles of 10 seconds at 95° C. and 20 seconds at 60° C. Viral load was quantified against known HBV DNA standards by using ViiA™ 7 Software. Viral load in the supernatant from wells with treated cells were compared against viral load in supernatant from DMSO control wells (>3 per plate). Cell viability assay was performed with CellTiter-Glo Luminescent Cell Viability Assay (Promega, cat #: G7573) with modification. Mixed appropriate amount of CellTiter-Glo (CTG) 1×DPBS in a 1:1 ratio, added 100 uL of the mixture to each well followed completely removal of all supernatant in each well without touching cell surface. Incubated the plate at room temperature for 10 min on an orbital shaker, and then read the plate with a plate reader (TECAN M1000 or Envision).; settings: not given

| Structure (SMILES) | EC50 |
| --- | --- |
| COC(=O)CC1(O)CC2CC(c3nn(C)c(N)c3C(=O)Nc3ccc(F)c(Cl)c3)CC2C1 (centres undefined) | < 100 nM |

same assay, conditions: HePAD38

| Structure (SMILES) | EC50 |
| --- | --- |
| CC(C)S(=O)(=O)N1CC2CC(c3nn(C)c(N)c3C(=O)Nc3ccc(F)c(Cl)c3)CC2C1 (centres undefined) | < 100 nM |
| Cn1nc([C@@H]2CC3CC(O)(CC(=O)O)C[C@@H]3C2)c(C(=O)Nc2ccc(F)c(Cl)c2)c1N (some centres undefined) | < 100 nM |
| Cn1nc(C2CC3CC(N4CCC4)CC3C2)c(C(=O)Nc2ccc(F)c(Cl)c2)c1N (centres undefined) | in the range around 300 nM |
| CC(=O)NC1CC2CC(c3nn(C)c(N)c3C(=O)Nc3ccc(F)c(Cl)c3)CC2C1 (centres undefined) | < 100 nM |
| Cn1nc(C2CC3CN(C(=O)OC(C)(C)C)CC3C2)c(C(=O)Nc2ccc(F)c(Cl)c2)c1N (centres undefined) | < 100 nM |
| Cn1nc(C2CC3CC(O)(C(C)(C)O)CC3C2)c(C(=O)Nc2ccc(F)c(Cl)c2)c1N (centres undefined) | < 100 nM |
| Cn1nc([C@H]2CC3CC(O)(C[S+]([O-])CC(F)(F)F)C[C@H]3C2)c(C(=O)Nc2ccc(F)c(Cl)c2)c1N (some centres undefined) | < 100 nM |
| Cn1cc(-c2ccc([C@H]3CC[C@@H](c4nn(C)c(N)c4C(=O)Nc4ccc(F)c(Cl)c4)C3)cc2)cn1 | < 100 nM |
| COC(=O)CC1(O)CC2CC(c3nn(C)c(N)c3C(=O)Nc3ccc(F)c(Cl)c3)CC2C1 (centres undefined) | < 100 nM |
| COC(=O)N1CC2CC(c3nn(C)c(N)c3C(=O)Nc3ccc(F)c(Cl)c3)CC2C1 (centres undefined) | < 100 nM |
| Cn1nc([C@H]2CC3CC(O)(C[S+]([O-])CC(F)(F)F)C[C@@H]3C2)c(C(=O)Nc2ccc(F)c(Cl)c2)c1N (some centres undefined) | < 100 nM |
| Cn1nc([C@@H]2CC3CC(O)(CSC(C)(C)C)C[C@H]3C2)c(C(=O)Nc2ccc(F)c(Cl)c2)c1N (some centres undefined) | < 100 nM |
| CN(C)S(=O)(=O)CC1(O)CC2CC(c3nn(C)c(N)c3C(=O)Nc3ccc(F)c(Cl)c3)CC2C1 (centres undefined) | < 100 nM |
| Cn1nc([C@@H]2CC3CC(O)(C[S+]([O-])CC(F)(F)F)C[C@H]3C2)c(C(=O)Nc2ccc(F)c(Cl)c2)c1N (some centres undefined) | < 100 nM |
| CC(C)N1CC2CC(c3nn(C)c(N)c3C(=O)Nc3ccc(F)c(Cl)c3)CC2C1 (centres undefined) | in the range around 5250 nM |
| Cn1nc(C2CC3CC(N4CCOC4=O)CC3C2)c(C(=O)Nc2ccc(F)c(Cl)c2)c1N (centres undefined) | < 100 nM |
| COc1cccc([C@@H]2CC[C@H](c3nn(C)c(N)c3C(=O)Nc3ccc(F)c(Cl)c3)C2)c1 | < 100 nM |
| CN1CC2CC(c3nn(C)c(N)c3C(=O)Nc3ccc(F)c(Cl)c3)CC2C1 (centres undefined) | in the range around 5250 nM |
| Cn1nc(C2CC3CCCC3C2)c(C(=O)Nc2ccc(F)c(Cl)c2)c1N (centres undefined) | < 100 nM |
| Cn1nc(C2CC3CC(O)(C(=O)NC4CC4)CC3C2)c(C(=O)Nc2ccc(F)c(Cl)c2)c1N (centres undefined) | in the range around 300 nM |

| Structure (SMILES) | EC50 |
| --- | --- |
| Cn1nc(C2CC3CC(O)(COC(F)F)CC3C2)c(C(=O)Nc2ccc(F)c(Cl)c2)c1N (centres undefined) | < 100 nM |
| CCC1OC[C@]2(CC3C[C@H](c4nn(C)c(N)c4C(=O)Nc4ccc(F)c(Cl)c4)C[C@@H]3C2)O1 (some centres undefined) | < 100 nM |
| Cn1nc(C2CCN(c3ccccc3)C2)c(C(=O)Nc2ccc(F)c(Cl)c2)c1N (centres undefined) | in the range around 300 nM |
| Cn1nc(C2CC3CNC(=O)CC3C2)c(C(=O)Nc2ccc(F)c(Cl)c2)c1N (centres undefined) | < 100 nM |
| Cn1cc([C@H]2CC[C@H](c3nn(C)c(N)c3C(=O)Nc3ccc(F)c(Cl)c3)C2)cn1 | in the range around 300 nM |
| Cn1nc([C@@H]2CC3CC(O)(CS(=O)(=O)CCO)C[C@@H]3C2)c(C(=O)Nc2ccc(F)c(Cl)c2)c1N (some centres undefined) | < 100 nM |
| Cn1nc([C@@H]2CC3CC(O)(CS(=O)(=O)CCCN4CCCCC4)C[C@H]3C2)c(C(=O)Nc2ccc(F)c(Cl)c2)c1N (some centres undefined) | in the range around 300 nM |
| CS(=O)(=O)CC1(O)CC2CC(c3n[nH]c(N)c3C(=O)Nc3ccc(F)c(Cl)c3)CC2C1 (centres undefined) | < 100 nM |
| Cn1nc(C2CC3CC(OC(C)(C)C)CC3C2)c(C(=O)Nc2ccc(F)c(Cl)c2)c1N (centres undefined) | < 100 nM |
| COc1cc(-c2c[nH]cn2)ccc1[C@@H]1CC[C@@H](c2nn(C)c(N)c2C(=O)Nc2ccc(F)c(Cl)c2)C1 | < 100 nM |
| Cn1nc([C@@H]2CC3C[S+]([O-])C[C@@H]3C2)c(C(=O)Nc2ccc(F)c(Cl)c2)c1N (some centres undefined) | in the range around 5250 nM |
| CCN(CC)C1CC2CC(c3nn(C)c(N)c3C(=O)Nc3ccc(F)c(Cl)c3)CC2C1 (centres undefined) | in the range around 300 nM |
| CN(C)C(=O)CC1CC2CC(c3nn(C)c(N)c3C(=O)Nc3ccc(F)c(Cl)c3)CC2C1 (centres undefined) | < 100 nM |
| Cn1nc([C@H]2CC[C@H](c3ccccc3)C2)c(C(=O)Nc2ccc(F)c(Cl)c2)c1N | in the range around 5250 nM |
| CC(C)OCC1(O)CC2C[C@@H](c3nn(C)c(N)c3C(=O)Nc3ccc(F)c(Cl)c3)C[C@H]2C1 (some centres undefined) | in the range around 5250 nM |
| Nc1[nH]nc(C2CC3CC(=O)CC3C2)c1C(=O)Nc1ccc(F)c(Cl)c1 (centres undefined) | in the range around 300 nM |
| Cn1nc(C2CC3CC(N4CCCC4)CC3C2)c(C(=O)Nc2ccc(F)c(Cl)c2)c1N (centres undefined) | < 100 nM |
| COc1cc(-c2cn(C)cn2)ccc1[C@H]1CC[C@@H](c2nn(C)c(N)c2C(=O)Nc2ccc(F)c(Cl)c2)C1 | in the range around 300 nM |
| Cn1nc([C@@H]2CC3CC(O)(CSCCO)C[C@@H]3C2)c(C(=O)Nc2ccc(F)c(Cl)c2)c1N (some centres undefined) | < 100 nM |
| Cn1nc([C@H]2C[C@H](c3ccccc3)C2)c(C(=O)Nc2ccc(F)c(Cl)c2)c1N | in the range around 300 nM |

| Structure (SMILES) | EC50 |
| --- | --- |
| CCSC1CC2CC(c3nn(C)c(N)c3C(=O)Nc3ccc(F)c(Cl)c3)CC2C1 (centres undefined) | < 100 nM |
| Cn1nc(C2CC3CC(O)(CC(=O)O)CC3C2)c(C(=O)Nc2ccc(F)c(Cl)c2)c1N (centres undefined) | < 100 nM |
| Cn1cc(C(=O)Nc2ccc(F)c(Cl)c2)c(C2CC3CC(=O)CC3C2)n1 (centres undefined) | in the range around 5250 nM |
| CCS(=O)(=O)C1CC2CC(c3nn(C)c(N)c3C(=O)Nc3ccc(F)c(Cl)c3)CC2C1 (centres undefined) | < 100 nM |
| Cn1nc([C@@H]2CC3COC(=O)C[C@@H]3C2)c(C(=O)Nc2ccc(F)c(Cl)c2)c1N (some centres undefined) | in the range around 300 nM |
| Cn1nc(C2CC3CC([S+](C)[O-])CC3C2)c(C(=O)Nc2ccc(F)c(Cl)c2)c1N (centres undefined) | < 100 nM |
| Cn1nc(C2CC3CC(N4CCOCC4)CC3C2)c(C(=O)Nc2ccc(F)c(Cl)c2)c1N (centres undefined) | < 100 nM |
| Cn1nc(C2CC3CC(N4CCNC(=O)C4)CC3C2)c(C(=O)Nc2ccc(F)c(C#N)c2)c1N (centres undefined) | < 100 nM |
| Cn1nc([C@@H]2CC3CC(O)(CS(=O)(=O)C(C)(C)C)C[C@@H]3C2)c(C(=O)Nc2ccc(F)c(Cl)c2)c1N (some centres undefined) | < 100 nM |
| Cn1nc([C@@H]2CC3CC(O)(CSCCN4CCOCC4)C[C@@H]3C2)c(C(=O)Nc2ccc(F)c(Cl)c2)c1N (some centres undefined) | < 100 nM |
| COc1cc(C(=O)NCCS(C)(=O)=O)ccc1[C@H]1CC[C@@H](c2nn(C)c(N)c2C(=O)Nc2ccc(F)c(Cl)c2)C1 | in the range around 300 nM |
| Cn1nc(C2CC3CN(S(C)(=O)=O)CC3C2)c(C(=O)Nc2ccc(F)c(Cl)c2)c1N (centres undefined) | < 100 nM |
| Cn1nc([C@@H]2CC3CC(O)(CSCC(F)(F)F)C[C@H]3C2)c(C(=O)Nc2ccc(F)c(Cl)c2)c1N (some centres undefined) | < 100 nM |
| Cn1nc([C@@H]2CC3CC(O)(CC(=O)O)C[C@H]3C2)c(C(=O)Nc2ccc(F)c(Cl)c2)c1N (some centres undefined) | < 100 nM |
| COc1cc(-c2cnn(C)c2)ccc1C1CCC(c2nn(C)c(N)c2C(=O)Nc2ccc(F)c(Cl)c2)C1 (centres undefined) | in the range around 300 nM |
| Cn1nc([C@@H]2CC3CC(O)(C[S+]([O-])CC(F)(F)F)C[C@@H]3C2)c(C(=O)Nc2ccc(F)c(Cl)c2)c1N (some centres undefined) | < 100 nM |
| Cn1nc(C2CC3CC(O)(CSCCN4CCOCC4)CC3C2)c(C(=O)Nc2ccc(F)c(Cl)c2)c1N (centres undefined) | < 100 nM |
| CSC1CC2CC(c3nn(C)c(N)c3C(=O)Nc3ccc(F)c(Cl)c3)CC2C1 (centres undefined) | < 100 nM |
